Experimental data reported in publication PMC6389928, “Biomolecular Interaction, Anti-Cancer and Anti-Angiogenic Properties of Cobalt(III) Schiff Base Complexes” (Scientific Reports, 2019).
Like-named read-outs stand apart in the source and are kept apart here.

Experiments:
[1] = system: monkey kidney epithelial cell Vero; test: MTT assay on Vero cells
Description: (§1) The anti-proliferative property of the complexes 1 and 2 at different concentrations on A549 lung carcinoma cell and monkey kidney epithelial cell Vero was examined by adopting MTT assay (Fig. S7). […] The naked cobalt acetate and ligands salen and salophen were separately tested on A549 cells to understand if metal chelation is the principal basis of the anticancer activity of the complexes.
(§2) Culture: Human lung cancer cells (A549) were received from National Centre for Cell Science (NCCS) Pune, India. Vero cells were obtained from ATCC. The cells were grown at humidified atmosphere of 5% CO2 in an incubator at 37 °C (Forma, Thermo Scientific, USA) in DMEM medium (Invitrogen) containing 10% FBS (Sigma-Aldrich, St. Louis, Mo, USA), 100 μg/mL of penicillin and 100 μg/mL streptomycin were used as antibiotics (Himedia, Mumbai, India). […] The cells were seeded in 96 well plates (5000 A549 cells per well) and allowed to attach for 24 h. The cells were then incubated with different concentrations of the metal complexes 1 and 2 dissolved in 100% dimethyl sulfoxide (DMSO) (Sigma-Aldrich) and prepared to a final dilution of 0.02% of DMSO.
In the determination of IC50 value, 0.02% DMSO was used as the solvent control. After the end of incubation period (24 h), the medium was aspirated carefully and replaced with new medium. The formazan formed was dissolved in100 μL of 100% DMSO to each well. […]

A549 cells = conditions: A549, respective IC50 concentrations, 24 h
Procedure: AO/EB Staining of A549 cells: The mode of cell death induced by the complexes was deciphered using acridine orange (AO) and ethidium bromide (EB) staining protocol. Cells were cultured in 6 well plates, treated with the complexes and allowed for 24 h. Then the cells were incubated with AO and EB solutions (1 part of 100 μg/mL AO and 1 part of 100 μg/mL of EB in PBS) and examined in a fluorescent microscope (Carl Zeiss, Jena, Germany) using a UV filter (450–490 nm). Three hundred cells per sample were counted in triplicate for each dose point. The cells were scored as viable, apoptotic and necrotic as judged by the staining pattern, nuclear morphology and cytoplasmic integrity. The percentage of apoptotic and necrotic cells were calculated and the morphological changes were also photographed.

[2] = system: developing blood vessels of the chicken chorioallantoic membrane; test: Chicken chorioallantoic membrane (CAM) assay; type: in vivo; conditions: for inhibition of vessel formation: 10 µM on filter paper discs, end of incubation (6 h); for angiogenic parameters (vessel size, vessel length, number of vessel branches): 10 µM, angioquant software, compared to control
Procedure: Chicken chorioallantoic membrane (CAM) assay is a well-known in vivo angiogenesis assay. To confirm the anti-angiogenic properties of cobalt complexes 1 and 2, CAM assay was performed. The complexes 1 and 2, on incubation for […], produced excellent inhibitory activity on the developing blood vessels. […] Several angiogenic parameters such as vessel size, vessel length and number of vessel branches were quantified using angioquant software as practiced in an earlier study[77] and represented as bar diagram (Fig. 5). […] This trend is also in tune with the DNA binding ability and anti-cancer activity of the complexes 1 and 2.
The Institutional Animal Care and Use Committee, an Association of New England Medical Center and Tufts (IACUC) and the National Institute of Health, USA, had established that a chick embryo that has not reached the 14th day of its developmental period would not experience pain and can, therefore, be used for experimentation without any ethical restrictions or prior protocol approval[95]–[97]. The anti-angiogenic activity was investigated on adopting the Chicken chorioallantoic membrane (CAM) assay. Briefly, specific pathogen-free (SPF) fertile chicken eggs were obtained from a government poultry farm. The eggs were incubated at 37 °C in a humid atmosphere. On the 5th day of incubation, the shell was cautiously broken using forceps. Precautions were taken to prevent puncture of any of the blood vessels during the transfer. The stock solutions were prepared by dissolving the complexes 1 and 2 in DMSO and then diluted suitably with the corresponding buffer to the required concentrations for all the experiments. The final DMSO concentration never exceeded 0.1%. Sterile filter paper discs (6 mm dia) soaked in solution of complexes (10 µM) were placed in 3 different positions over the generating blood vessels. For the control experiments sterile filter paper disks (6 mm dia) soaked with 10 µM of 0.1% of DMSO in PBS were used. Images of blood vessels (i.e., 0 h) were taken using stereo microscope (Nexius Zoom). The eggs were aseptically transferred in a humidified incubator at 37 °C and images were captured after 6 h incubation.

A549 lung carcinoma cell = test: MTT assay on A549 cells; conditions: A549 cell, 24 h
Description: as §1, §2
In the determination of IC50 value, 0.02% DMSO was used as the solvent control. After the end of incubation period (24 h), the medium was aspirated carefully and replaced with new medium. The formazan formed was dissolved in100 μL of 100% DMSO to each well. The absorbance was monitored at 570 nm using a 96 well plate reader (Bio-Rad, Hercules, California, USA). All experiments were repeated for a minimum of three times when each experiment was done in two replicates.

CT-DNA = test: Cyclic voltammetry in the absence and presence of CT-DNA; type: binding; conditions: absence of DNA, 0.5% DMSO/PBS, glassy carbon vs saturated calomel; for cathodic peak potential Epc: Co(III) to Co(II)
Procedure: Electrochemical studies of complexes 1 and 2 were recorded in 0.5% DMSO/PBS buffer solution, with glassy carbon as working electrode vs saturated calomel as reference electrode and Pt wire as auxiliary electrode. […] On addition of CT-DNA to each cobalt complex solution, no new peak appeared. […] The decrease in voltammetric current in the presence of CT- DNA is possibly due to the diffusion of the complexes 1 and 2 bound to the large, slowly diffusing DNA molecule[39],[40]. The positive shifts indicate that complexes 1 and 2 bind to DNA through intercalation as observed in the spectroscopic studies[39],[40].
For cyclic voltammetry experiments, the electrode surfaces were freshly polished with alumina powder and then sonicated in ethanol and distilled water for 1 min prior to each experiment and the electrode was rinsed with doubly distilled water thoroughly between each polishing step. Finally, each electrode was cleaned thoroughly in an ultrasonic cleaner again with doubly distilled water. Cyclic voltammetric experiments were performed at room temperature in […] in a single compartment cell with a three-electrode configuration, namely, glassy carbon working electrode, platinum wire auxiliary electrode and saturated calomel as reference electrode. Before experiments, all solutions were deaerated with dry nitrogen gas for 10 min to remove dissolved oxygen and kept in nitrogen atmosphere throughout the experiments.

Structure (SMILES)	concentration up to which no significant toxicity [1] [µM]	mode of cell death (AO/EB staining) (A549 cells)	inhibition of vessel formation [2]	angiogenic parameters (vessel size, vessel length, number of vessel branches) [2]	IC50 (A549 lung carcinoma cell) [µM]	cathodic peak current ipc (CT-DNA)	cathodic peak potential Epc (CT-DNA) [V]	concentration up to which no significant toxicity ([1]; Vero cells, MTT) [µM]
CCCCCCCCCCCC[NH2+][Co-3]123([NH2+]CCCCCCCCCCCC)[O]c4ccccc4C=[N+]1CC[N+]2=Cc1ccccc1[O]3.[O-][Cl+3]([O-])([O-])[O-] [Complex 1, trans-[Co(salen)(DA)2](ClO4)]	> 150	most of the cells succumbed to apoptosis and a few to necrosis	profound inhibition of vessel formation	reduction in all of these parameters compared to control	80	−1.184 × 10^−5 A	−0.490	
CCCCCCCCCCCC[NH2+][Co-3]123([NH2+]CCCCCCCCCCCC)[O]c4ccccc4C=[N+]1c1ccccc1[N+]2=Cc1ccccc1[O]3.[O-][Cl+3]([O-])([O-])[O-] [Complex 2, trans-[Co(salophen)(DA)2](ClO4)]		most of the cells succumbed to apoptosis and a few to necrosis	profound inhibition of vessel formation	reduction in all of these parameters compared to control	65	−3.622 × 10^−6 A	−0.265	> 150
